target: T1, delta-5-desaturase (Rattus norvegicus, UniProt Q920R3); experiment: Inhibitory activity on delta-5-desaturase (rat liver microsomal fraction, 14C-eicosatrienoic acid, TLC); assay type: biochemical; details: test compound at 10 μM, room temperature, 120 minutes
T1 construct: the microsomal fraction of a rat river (10 μl), which had been diluted to 3 mg/ml; from tissue; host or cells: rat liver microsomal fraction
Summary of the method: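 Rat liver microsomes (3 mg/ml before addition) incubated with test compound at 10 μM, NADH, ATP, CoA and 14C-eicosatrienoic acid in phosphate buffer pH 7.4 with BSA and glutathione, 120 min at room temperature. Lipids saponified, extracted, separated by reverse-phase TLC and imaged; % inhibition reported.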

T1 sequence (Q920R3 whole entry): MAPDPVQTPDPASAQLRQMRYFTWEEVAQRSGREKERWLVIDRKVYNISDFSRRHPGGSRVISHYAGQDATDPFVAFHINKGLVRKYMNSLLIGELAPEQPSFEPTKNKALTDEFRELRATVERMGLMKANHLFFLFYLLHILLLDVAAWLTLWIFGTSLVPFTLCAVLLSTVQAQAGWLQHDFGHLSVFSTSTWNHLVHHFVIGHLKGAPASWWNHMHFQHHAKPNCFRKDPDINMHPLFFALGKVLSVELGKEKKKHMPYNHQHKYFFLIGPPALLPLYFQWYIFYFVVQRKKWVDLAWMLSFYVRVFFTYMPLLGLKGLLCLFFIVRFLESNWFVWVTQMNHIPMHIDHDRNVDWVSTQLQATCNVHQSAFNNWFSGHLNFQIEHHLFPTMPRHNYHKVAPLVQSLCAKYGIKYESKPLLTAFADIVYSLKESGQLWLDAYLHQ

Compared with `N#CCCCSc1nc2cc[nH]c2c(=O)n1-c1ccc(OCC(F)(F)F)cc1` [Example 86, 4-({4-Oxo-3-[4-(2,2,2-trifluoroethoxy)phenyl]-4,5-dihydro-3H-pyrrolo[3,2-d]pyrimidin-2-yl}sulfanyl)butanenitrile], `CCOCCSc1nc2cc[nH]c2c(=O)n1-c1ccc(OCC(F)(F)F)cc1` [Example 74, 2-[(2-Ethoxyethyl)sulfanyl]-3-[4-(2,2,2-trifluoroethoxy)phenyl]-3,5-dihydro-4H-pyrrolo[3,2-d]pyrimidin-4-one] is higher in inhibition at 10 µM: 99% for the first, 101% for the second.

First: CS(=O)(=O)CCCSc1nc2cc[nH]c2c(=O)n1-c1ccc(OCC2CC2)cc1 [Example 154, 3-[4-(Cyclopropylmethoxy)phenyl]-2-{[3-(methylsulfonyl)propyl]sulfanyl}-3,5-dihydro-4H-pyrrolo[3,2-d]pyrimidin-4-one]
Second: N#CCCNC(=O)CCCSc1nc2cc[nH]c2c(=O)n1-c1ccc(OCC2CCC2)cc1 [Example 82, N-(2-cyanoethyl)-4-({3-[4-(cyclobutylmethoxy)phenyl]-4-oxo-4,5-dihydro-3H-pyrrolo[3,2-d]pyrimidin-2-yl}sulfanyl)butanamide]
The inhibition at 10 µM of the first is lower: 99% for the first, 101% for the second.

Compared with `CSc1nc2[nH]ccc2c(=O)n1-c1ccc(OCC(F)(F)F)cc1` [Example 212, 2-(Methylsulfanyl)-3-[4-(2,2,2-trifluoroethoxy)phenyl]-3,7-dihydro-4H-pyrrolo[2,3-d]pyrimidin-4-one], `CCSc1nc2[nH]ccc2c(=O)n1-c1ccc(OCC(F)(F)F)cc1` [Example 194, 2-(Ethylsulfanyl)-3-[4-(2,2,2-trifluoroethoxy)phenyl]-3,7-dihydro-4H-pyrrolo[2,3-d]pyrimidin-4-one] is higher in inhibition at 10 µM: 98% for the first, 103% for the second.

Compared with `O=c1c2cc[nH]c2nc(SC(F)(F)F)n1-c1ccc(OCC(F)(F)F)cc1` [Example 253, 3-[4-(2,2,2-Trifluoroethoxy)phenyl]-2-[(trifluoromethyl)sulfanyl]-3,7-dihydro-4H-pyrrolo[2,3-d]pyrimidin-4-one], `CCSc1nc2[nH]ccc2c(=O)n1-c1ccc(OCC(F)(F)C(F)(F)F)cc1` [Example 249, 2-(Ethylsulfanyl)-3-[4-(2,2,3,3,3-pentafluoropropoxy)phenyl]-3,7-dihydro-4H-pyrrolo[2,3-d]pyrimidin-4-one] is higher in inhibition at 10 µM: 98% for the first, 100% for the second.

Compared with `CCS(=O)(=O)c1nc2[nH]ccc2c(=O)n1-c1ccc(OCC(F)(F)F)cc1` [Example 207, 2-(Ethylsulfonyl)-3-[4-(2,2,2-trifluoroethoxy)phenyl]-3,7-dihydro-4H-pyrrolo[2,3-d]pyrimidin-4-one], `CCCCSc1nc2[nH]ccc2c(=O)n1-c1ccc(OCC(F)(F)F)cc1` [Example 252, 2-(Butylsulfanyl)-3-[4-(2,2,2-trifluoroethoxy)phenyl]-3,7-dihydro-4H-pyrrolo[2,3-d]pyrimidin-4-one] is lower in inhibition at 10 µM: 101% for the first, 96% for the second.

First: O=c1c2[nH]ccc2nc(SCCN2CCOCC2)n1-c1ccc(OCC(F)(F)F)cc1 [Example 111, 2-[(2-Morpholin-4-ylethyl)sulfanyl]-3-[4-(2,2,2-trifluoroethoxy)phenyl]-3,5-dihydro-4H-pyrrolo[3,2-d]pyrimidin-4-one]
Second: O=c1c2[nH]ccc2nc(SCCCN2CCOCC2)n1-c1ccc(OCC(F)(F)F)cc1 [Example 112, 2-[(3-Morpholin-4-ylpropyl)sulfanyl]-3-[4-(2,2,2-trifluoroethoxy)phenyl]-3,5-dihydro-4H-pyrrolo[3,2-d]pyrimidin-4-one]
The inhibition at 10 µM of the first is lower: 98% for the first, 102% for the second.

First: O=C1Cc2c(nc(SCC(F)(F)F)n(-c3ccc(OCC(F)(F)C(F)(F)F)cc3)c2=O)N1 [Example 347, 3-[4-(2,2,3,3,3-Pentafluoropropoxy)phenyl]-2-[(2,2,2-trifluoroethyl)sulfanyl]-5,7-dihydro-3H-pyrrolo[2,3-d]pyrimidine-4,6-dione]
Second: N#CCSc1nc2c(c(=O)n1-c1ccc(OCC(F)(F)F)cc1)CC(=O)N2 [Example 312, ({4,6-Dioxo-3-[4-(2,2,2-trifluoroethoxy)phenyl]-4,5,6,7-tetrahydro-3H-pyrrolo[2,3-d]pyrimidin-2-yl}sulfanyl)acetonitrile]
The inhibition at 10 µM of the first is higher: 100% for the first, 97% for the second.

`CCOCCOCCSc1nc2[nH]ccc2c(=O)n1-c1ccc(OCC(F)(F)F)cc1` [Example 192, 2-{[2-(2-Ethoxyethoxy)ethyl]sulfanyl}-3-[4-(2,2,2-trifluoroethoxy)phenyl]-3,7-dihydro-4H-pyrrolo[2,3-d]pyrimidin-4-one] and `O=c1c2cc[nH]c2nc(SCCO)n1-c1ccc(OCC(F)(F)F)cc1` [Example 214, 2-[(2-Hydroxyethyl)sulfanyl]-3-[4-(2,2,2-trifluoroethoxy)phenyl]-3,7-dihydro-4H-pyrrolo[2,3-d]pyrimidin-4-one] are the same in inhibition at 10 µM: 101% for the first, 101% for the second.

First: CCSc1nc2[nH]ccc2c(=O)n1-c1ccc(OC(F)(F)F)cc1 [Example 254, 2-(Ethylsulfanyl)-3-[4-(trifluoromethoxy)phenyl]-3,7-dihydro-4H-pyrrolo[2,3-d]pyrimidin-4-one]
Second: CCSc1nc2[nH]ccc2c(=O)n1-c1ccc(OCC(F)F)cc1 [Example 248, 3-[4-(2,2-Difluoroethoxy)phenyl]-2-(ethylsulfanyl)-3,7-dihydro-4H-pyrrolo[2,3-d]pyrimidin-4-one]
The inhibition at 10 µM of the first is lower: 98% for the first, 101% for the second.

Going from `CCOc1ccc(-n2c(SCCCC(=O)NCCC#N)nc3cc[nH]c3c2=O)cc1` [Example 60, N-(2-cyanoethyl)-4-{[3-(4-ethoxyphenyl)-4-oxo-4,5-dihydro-3H-pyrrolo[3,2-d]pyrimidin-2-yl]sulfanyl}butanamide] to `CC1(COc2ccc(-n3c(SCCCC(=O)NCCC#N)nc4cc[nH]c4c3=O)cc2)CC1` [Example 93, N-(2-cyanoethyl)-4-[(3-{4-[(1-methylcyclopropyl)methoxy]phenyl}-4-oxo-4,5-dihydro-3H-pyrrolo[3,2-d]pyrimidin-2-yl)sulfanyl]butanamide], the inhibition at 10 µM rises from 99% to 101%.

First: CC(C)CSc1nc2c(c(=O)n1-c1ccc(OCC(F)(F)F)cc1)CC(=O)N2 [Example 313, 2-[(2-Methylpropyl)sulfanyl]-3-[4-(2,2,2-trifluoroethoxy)phenyl]-5,7-dihydro-3H-pyrrolo[2,3-d]pyrimidine-4,6-dione]
Second: CCSc1nc2c(c(=O)n1-c1ccc(OCC(F)(F)F)c(F)c1)CC(=O)N2 [Example 307, 2-(Ethylsulfanyl)-3-[3-fluoro-4-(2,2,2-trifluoroethoxy)phenyl]-5,7-dihydro-3H-pyrrolo[2,3-d]pyrimidine-4,6-dione]
The inhibition at 10 µM of the first is higher: 102% for the first, 99% for the second.

Going from `CCSc1nc2[nH]c(Br)cc2c(=O)n1-c1ccc(OCC(F)(F)F)cc1` [Example 232, 6-Bromo-2-(ethylsulfanyl)-3-[4-(2,2,2-trifluoroethoxy)phenyl]-3,7-dihydro-4H-pyrrolo[2,3-d]pyrimidin-4-one] to `O=c1c2cc[nH]c2nc(OCC2CC2)n1-c1ccc(OCC(F)(F)F)cc1` [Example 226, 2-(Cyclopropylmethoxy)-3-[4-(2,2,2-trifluoroethoxy)phenyl]-3,7-dihydro-4H-pyrrolo[2,3-d]pyrimidin-4-one], the inhibition at 10 µM rises from 96% to 102%.

Going from `O=C1Cc2c(nc(OCCC(F)(F)F)n(-c3ccc(OCC(F)(F)F)cc3)c2=O)N1` [Example 341, 3-[4-(2,2,2-Trifluoroethoxy)phenyl]-2-(3,3,3-trifluoropropoxy)-5,7-dihydro-3H-pyrrolo[2,3-d]pyrimidine-4,6-dione] to `O=C1Cc2c(nc(Oc3ccc(F)cc3)n(-c3ccc(OCC(F)(F)C(F)(F)F)cc3)c2=O)N1` [Example 311, 2-(4-Fluorophenoxy)-3-[4-(2,2,3,3,3-pentafluoropropoxy)phenyl]-5,7-dihydro-3H-pyrrolo[2,3-d]pyrimidine-4,6-dione], the inhibition at 10 µM falls from 99% to 98%.

Compared with `COCCOCCCSc1nc2cc[nH]c2c(=O)n1-c1ccc(OCC(F)(F)F)cc1` [Example 78, 2-{[3-(2-Methoxyethoxy)propyl]sulfanyl}-3-[4-(2,2,2-trifluoroethoxy)phenyl]-3,5-dihydro-4H-pyrrolo[3,2-d]pyrimidin-4-one], `O=C(CCCSc1nc2cc[nH]c2c(=O)n1-c1ccc(OCC(F)(F)F)cc1)N1CCS(=O)(=O)CC1` [Example 135, 2-{[4-(1,1-Dioxidothiomorpholin-4-yl)-4-oxobutyl]sulfanyl}-[4-(2,2,2-trifluoroethoxy)phenyl]-3,5-dihydro-4H-pyrrolo[3,2-d]pyrimidin-4-one] is lower in inhibition at 10 µM: 101% for the first, 100% for the second.

Going from `CC(C)(C)CCOc1ccc(-n2c(SCCCC(=O)NCCC#N)nc3[nH]ccc3c2=O)cc1` [Example 176, N-(2-cyanoethyl)-4-({3-[4-(3,3-dimethylbutoxy)phenyl]-4-oxo-4,7-dihydro-3H-pyrrolo[2,3-d]pyrimidin-2-yl}sulfanyl)butanamide] to `CC(C)(C)COc1ccc(-n2c(SCCCC(=O)NCCC#N)nc3[nH]ccc3c2=O)cc1` [Example 174, N-(2-cyanoethyl)-4-({3-[4-(2,2-dimethylpropoxy)phenyl]-4-oxo-4,7-dihydro-3H-pyrrolo[2,3-d]pyrimidin-2-yl}sulfanyl)butanamide], the inhibition at 10 µM rises from 98% to 100%.

Compared with `O=c1c2[nH]ccc2nc(SCCOC2CCOCC2)n1-c1ccc(OCC2CC2)cc1` [Example 147, 3-[4-(Cyclopropylmethoxy)phenyl]-2-{[2-(tetrahydro-2H-pyran-4-yloxy)ethyl]sulfanyl}-3,5-dihydro-4H-pyrrolo[3,2-d]pyrimidin-4-one], `N#CCCNC(=O)CCCSc1nc2[nH]ccc2c(=O)n1-c1ccc(OCCC(F)(F)F)cc1` [Example 189, N-(2-cyanoethyl)-4-({4-oxo-3-[4-(3,3,3-trifluoropropoxy)phenyl]-4,7-dihydro-3H-pyrrolo[2,3-d]pyrimidin-2-yl}sulfanyl)butanamide] is higher in inhibition at 10 µM: 98% for the first, 105% for the second.

`O=c1c2cc[nH]c2nc(Oc2ccc(F)cc2)n1-c1ccc(OCC(F)(F)F)cc1` [Example 246, 2-(4-Fluorophenoxy)-3-[4-(2,2,2-trifluoroethoxy)phenyl]-3,7-dihydro-4H-pyrrolo[2,3-d]pyrimidin-4-one] was tested, and the inhibition at 10 µM was 101%.
